Here are results for four compounds from publication PMC7684313, “In vitro and in vivo pharmacological activity of minor cannabinoids isolated from Cannabis sativa” (Scientific Reports, 2020).

Read-outs that look alike come from different tables or passages of the source. Marks after values point to notes of the source that are not given here.

Broadly, the Emax is the size of the effect at its maximum, as opposed to the concentration needed. As usually defined, the EC50 is the midpoint of the concentration-response curve. One may read the Ki as a measure of affinity in units of concentration, obtained from inhibition or displacement. A low value points to a stronger hold on the target.

Assay [1] addresses T1, hCB1R (Homo sapiens, UniProt P21554).
T1 construct: expressed in transfected cells; membranes
Put plainly: cell-based. The following applies: for Emax: CHO, read-out: hCB1R Emax, recruitment of βarrestin2; for EC50: PathHunter CHO hCB1R cells, 90 min, 95% CI in brackets, read-out: hCB1R EC50, recruitment of βarrestin2.

For assay [2], the target named is T1, hCB1R. Kind of assay: cell-based. In kind it is cell-based. The following applies: for Emax: CHO, read-out: hCB1R Emax, inhibition of FSK-stimulated cAMP accumulation; for EC50: HitHunter CHO hCB1R cells, 90 min, 95% CI in brackets, read-out: hCB1R EC50, inhibition of FSK-stimulated cAMP accumulation. Background: Changes in cAMP serve as a functional read-out for many G protein-coupled receptors.

The target of assay [3] is T1, hCB1R. Kind of assay: biochemical. The class given is binding.
The target of assay [4] is T1, hCB1R. Kind of assay: Ligand bias between cAMP inhibition and βarrestin2 recruitment at hCB1R (operational model). In kind it is cell-based. The following applies: ∆∆LogR > 0 bias for inhibition of cAMP, < 0 bias for βarrestin2; CP55,940 reference agonist. The method, then: (§1) Figure 8 Analysis of ligand bias for phytocannabinoids at hCB1R (a) and hCB2R (b).
(§2) Concentration–response curves (CRC) were fit using non-linear regression with variable slope (4 parameters) and used to calculate EC50, Emin, and Emax (GraphPad, Prism, v. 8.0). […] In vivo data are presented as % MPE for catalepsy (MPE = 60 s) and anti-nociception (MPE = 20 s), °C for body temperature, and distance travelled (m) and % time in the centre quadrant in 5 min for OFT. Post-hoc analyses were performed using Tukey’s (one-way ANOVA) test. Homogeneity of variance was confirmed using Bartlett’s test. All data were evaluated for possible outliers using Grubb’s test in GraphPad.

For assay [5], the system named is C57BL/6 mice. Kind of assay: Nociception in the tail flick assay (tetrad). In kind it is in vivo. The following applies: 15 min post-injection. The method, then: (§3) Asterisk colour matches the treatment group assessed.
as §2
For orientation: Hot-plate and tail-flick tests time the reaction to a heat stimulus.

Assay [6] concerns the target T2, hCB2R (Homo sapiens, UniProt P34972). Put plainly: hCB2R-dependent recruitment of βarrestin2 (PathHunter CHO cells). The class given is cell-based. Further details: expressed in transfected cells; membranes. The following applies: for Emax: CHO; for EC50: PathHunter CHO hCB2R cells, 90 min, 95% CI in brackets, read-out: hCB2R EC50, recruitment of βarrestin2.
In assay [7] the test system is C57BL/6 mice. Kind of assay: Locomotion in the open field test (OFT). In kind it is in vivo. The following applies: 1 h post-injection. The method, then:
as §3, §2

The target of assay [8] is T2, hCB2R. Put plainly: hCB2R-dependent inhibition of FSK-stimulated cAMP accumulation (HitHunter CHO cells). The class given is cell-based. Also noted: expressed in transfected cells; membranes. The following applies: for Emax: CHO; for EC50: HitHunter CHO hCB2R cells, 90 min, 95% CI in brackets, read-out: hCB2R EC50, inhibition of FSK-stimulated cAMP accumulation.
Assay [9] has as its target T2, hCB2R. Put plainly: [^3H]CP55,940 displacement from hCB2R CHO cell membranes. The following applies: for hCB2R Emin: bottom of the concentration–response curve of [^3H]CP55,940 displacement, %CP55,940 response, mean ± SEM; for extent of [^3H]CP55,940 displacement from hCB2R, in words: concentration range 0.1 nM–10 µM.
In assay [10] the target is T2, hCB2R. Kind of assay: Ligand bias between cAMP inhibition and βarrestin2 recruitment at hCB2R (operational model). The following applies: ∆∆LogR > 0 bias for inhibition of cAMP, < 0 bias for βarrestin2; CP55,940 reference agonist. In kind it is cell-based. Also noted: expressed in transfected cells; membranes. The method, then: as §1, §2
In general terms: Arrestin recruitment assays detect the binding of arrestin to an activated receptor.

Assay [11] has as its system C57BL/6 mice. Kind of assay: Catalepsy in the ring holding assay (tetrad). The following applies: MPE 60 s = 100%. The class given is in vivo. The method, then: as §3, §2
Assay [12] concerns C57BL/6 mice. Put plainly: Body temperature (tetrad). The class given is in vivo. The method, then:
as §3, §2

The target in assay [13] is T2, hCB2R. Put plainly: biochemical.

T1 sequence (P21554 whole entry): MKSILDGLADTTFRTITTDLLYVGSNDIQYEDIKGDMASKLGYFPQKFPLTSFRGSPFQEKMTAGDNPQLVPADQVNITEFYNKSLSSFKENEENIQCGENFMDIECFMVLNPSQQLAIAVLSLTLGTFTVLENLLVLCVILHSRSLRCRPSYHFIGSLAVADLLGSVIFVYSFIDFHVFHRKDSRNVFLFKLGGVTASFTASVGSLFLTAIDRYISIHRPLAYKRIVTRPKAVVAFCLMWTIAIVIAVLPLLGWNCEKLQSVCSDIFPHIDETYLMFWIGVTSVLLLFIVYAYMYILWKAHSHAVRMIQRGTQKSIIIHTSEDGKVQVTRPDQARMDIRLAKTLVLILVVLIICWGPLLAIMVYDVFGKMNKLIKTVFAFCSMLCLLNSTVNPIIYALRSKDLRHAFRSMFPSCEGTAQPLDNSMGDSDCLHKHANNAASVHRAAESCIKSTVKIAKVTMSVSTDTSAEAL
T2 sequence (P34972 whole entry): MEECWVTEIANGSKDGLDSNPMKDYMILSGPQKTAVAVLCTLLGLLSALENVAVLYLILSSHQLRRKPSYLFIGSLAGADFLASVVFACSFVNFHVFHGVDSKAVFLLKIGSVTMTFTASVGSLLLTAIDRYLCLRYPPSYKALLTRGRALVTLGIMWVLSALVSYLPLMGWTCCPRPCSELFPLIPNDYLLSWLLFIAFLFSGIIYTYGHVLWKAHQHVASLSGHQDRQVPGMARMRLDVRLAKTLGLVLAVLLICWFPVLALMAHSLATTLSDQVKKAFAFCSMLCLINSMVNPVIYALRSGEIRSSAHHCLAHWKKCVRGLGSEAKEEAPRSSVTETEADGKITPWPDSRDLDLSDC

On to `CCCCCc1cc(O)c2c(c1)OC(C)(CCC=C(C)C)C=C2` (centres unmarked) [CBC, cannabichromene], for which, on hCB1R [1], the Emax was found to be 6.9 ± 0.96% and the EC50 is more than 10000 nM. For the same compound, on hCB1R [2], the Emax was determined as 68 ± 9.7% and the EC50 is 190 nM. Further, at hCB1R [3], the Ki is 11 nM; the “extent of [^3H]CP55,940 displacement from hCB1R, in words” value is recorded as “partially displaced”; the “hCB1R Emin” value was 55 ± 3.7*^ %. The “ligand bias at hCB1R (∆∆LogR), in words” value at hCB1R [4] is “bias for the inhibition of cAMP relative to βarrestin2”. In the assay with C57BL/6 mice [5] (3 mg/kg i.p.), the “anti-nociceptive effect (tail flick latency), in words” value (“anti-nociceptive effect” below) is “weak anti-nociceptive effect”. In addition, at hCB2R [6], the maximum response (Emax) was 12 ± 2.8% and the EC50 was more than 10000 nM. Also, the “total locomotion in the OFT, in words” value in the assay on C57BL/6 mice [7] (10 mg/kg i.p.) was “Hypolocomotive responses”. At hCB2R [8], the Emax was 76 ± 5.4% and the EC50 was 7.1 nM. In addition, on hCB2R [9], the “hCB2R Emin” value came out at 9.7 ± 5.9 % and the “extent of [^3H]CP55,940 displacement from hCB2R, in words” value (“extent … from hCB2R, in words” for short) was “displaced [^3H]CP55,940 from hCB2R to an extent that was not different from CP55,940”. The “ligand bias at hCB2R (∆∆LogR), in words” value on hCB2R [10] is on record as “bias for inhibition of cAMP relative to βarrestin2”.
As to `CCCCCc1cc(O)c2c(c1)OC(C)(C)[C@@H]1CCC(C)=C[C@@H]21` [∆^9-THC, ∆^9-tetrahydrocannabinol, reference compound], the “cataleptic response, % of maximum possible effect (MPE)” value in the assay with C57BL/6 mice [11] (3 mg/kg i.p.) worked out at 17%; in the assay on C57BL/6 mice [11] (10 mg/kg i.p.) it was 100%. In the assay with C57BL/6 mice [5] (dose range 0.1–10 mg/kg i.p.), the “anti-nociceptive effect” value is “dose-dependent increase in anti-nociceptive effects”. Besides, the “activity in hCB2R βarrestin2 recruitment, in words” value at hCB2R [6] (0.1 nM–10 µM, relative to CP55,940) is listed as “modest agonist activity”. Moreover, the Emax on hCB2R [6] stood at 46 ± 4.9%; at hCB2R [8], 76 ± 8.6%. For the same compound, at hCB2R [9], the “hCB2R Emin” value worked out at 7.4 ± 4.4%. The “extent … from hCB2R, in words” value at hCB2R [9] is “displaced [^3H]CP55,940 from hCB2R to an extent that was not different from CP55,940”. On hCB2R [10], the “ligand bias at hCB2R (∆∆LogR), in words” value is on record as “bias for inhibition of cAMP relative to βarrestin2”. Besides, the “effect on body temperature, in words” value in the assay with C57BL/6 mice [12] (3 and 10 mg/kg i.p.) is given as “decreased body temperature”.
Consider `CCCCCCC(C)(C)c1ccc([C@@H]2C[C@H](O)CC[C@H]2CCCO)c(O)c1` [CP55,940, reference compound], for which, at hCB1R [3], the “hCB1R Emin” value was determined as 0.0 ± 5.2%. In addition, in the assay on C57BL/6 mice [11] (0.1 mg/kg i.p.), the “cataleptic response, % of maximum possible effect (MPE)” value was 25%. In addition, in the assay on C57BL/6 mice [5] (0.1 mg/kg i.p.), the “anti-nociceptive effect” value was “anti-nociceptive effects”. Further, the “total locomotion in the OFT, in words” value in the assay on C57BL/6 mice [7] (0.1 mg/kg i.p.) was “reduced total locomotion”. Also, the “hCB2R Emin” value on hCB2R [9] came to 0.0 ± 6.2%. Moreover, in the assay with C57BL/6 mice [12] (0.1 mg/kg i.p.), the “effect on body temperature, in words” value is “decreased body temperature”.
`C=C(C)[C@@H]1CCC(C)=C[C@H]1c1c(O)cc(CCCCC)c(C(=O)O)c1O` [CBDa, cannabidiolic acid]: the Emax was determined as 0.1 ± 0.11% at hCB1R [1], 22 ± 1.1% at hCB1R [2], 18 ± 2.5% on hCB2R [6] and 32 ± 4.2% on hCB2R [8]. Also, the EC50 at hCB1R [1] was more than 10000 nM; on hCB1R [2], 30 nM; on hCB2R [6], more than 10000 nM; at hCB2R [8] it was 140 nM. For the same compound, the inhibitory constant (Ki) on hCB2R [13] is 12 nM; at hCB1R [3], more than 10000 nM. In addition, the “extent of [^3H]CP55,940 displacement from hCB1R, in words” value at hCB1R [3] was “weakly displaced [^3H]CP55,940 at concentrations ≥ 1 µM”. The “hCB1R Emin” value on hCB1R [3] is recorded as 96 ± 6.5*^ %. For the same compound, the “ligand bias at hCB1R (∆∆LogR), in words” value on hCB1R [4] is “bias for the inhibition of cAMP relative to βarrestin2”. Moreover, the “total locomotion in the OFT, in words” value with C57BL/6 mice [7] (10 mg/kg i.p.) is “Hypolocomotive responses”. At hCB2R [9], the “hCB2R Emin” value came out at 30 ± 7.8 %. Also, the “extent … from hCB2R, in words” value at hCB2R [9] is “displaced [^3H]CP55,940 from hCB2R to an extent that was not different from CP55,940”. On hCB2R [10], the “ligand bias at hCB2R (∆∆LogR), in words” value is listed as “bias for inhibition of cAMP relative to βarrestin2”.
